In PMC7308271, “Discovery of a new class of orthosteric antagonists with nanomolar potency at extrasynaptic GABAA receptors” (Scientific Reports, 2020):

What was measured:
[1] = biological target: T1, human α1β2γ2 GABAΑ receptor (Homo sapiens, UniProt P14867+P47870); assay: FMP assay at α1β2γ2 GABAA receptors in HEK cells; assay type: cell-based
T1 construct: expressed in transfected cells; host or cells: HEK293 line stably expressing α1β2γ2 (gift from Marianne L. Jensen, Neurosearch)
Procedure: (§1) HEK293 cells were maintained in DMEM containing GlutaMAX-I, supplemented with 10% FBS and 1% penicillin-streptomycin and incubated at 37 °C and a humidity of 5% CO2. For expression of δ-containing GABAΑ receptors, a HEK293 Flp-In^ΤΜ cell line stably expressing the human GABAΑ δ-subunits (referred to as δ-HEK) was used and the γ-containing subtypes was expressed in a background HEK293 Flp-In^ΤΜ cell line stably expressing the G-protein coupled peptide receptor NPBWR2 (referred to as HEK background)[26], both positively selected for using 200 μg/mL hygromycin B. α1β2γ2 receptors were stably expressed in a HEK293 cell line maintained as above but with no selection (gift from Marianne L. Jensen, Neurosearch).
(§2) To express recombinant GABAΑ receptors human α1, α2, α3, α5, α6, β2, γ2 (pcDNA3.1/Zeo) and α4, β1 (pUNIV)[26] subunit cDNA were transiently transfected into either δ-HEK or HEK background cells. δ-HEK cells were transfected with α- and β-subunits in a 1:1 ration whereas HEK background cells were transfected with α-, β- and γ-subunits in a 1:1:2 ratio. Human BGT1 (pcDNA5/FRT)[43] was transiently transfected into the δ-HEK cell line. δ-HEK cells transfected for whole-cell patch-clamp recordings were co-transfected with green fluorescent protein (GFP) as well as α- and β-subunits in a 0.5:1:1 ratio (0.8 μg + 1.6 μg + 1.6 μg in a 6 cm dish) in order to identify transfected cells. The transfection was carried out using Polyfect as transfection reagent according to the manufactures protocol expect for using half the recommended volume of Polyfect.
(§3) The FMP assay was performed as previously described with a few modifications. […] Data was obtained as changes in fluorescence units (∆RFU) by measuring emission at 560 nm caused by excitation at 530 nm. […]
(§4) Data obtained in the FMP assay are given as relative changes in fluorescence units (ΔRFU) by subtracting the average of the baseline fluorescence signal from the peak fluorescence signal after compound addition. […]

[2] = biological target: T2, human α5β2γ2 GABAΑ receptor (Homo sapiens, UniProt P31644+P47870); assay: FMP assay at α5β2γ2 GABAA receptors in HEK cells; assay type: cell-based
T2 construct: expressed in transfected cells; host or cells: HEK background (HEK293 Flp-In stably expressing NPBWR2), transient α:β:γ 1:1:2
T2 sequence (P31644 32-462): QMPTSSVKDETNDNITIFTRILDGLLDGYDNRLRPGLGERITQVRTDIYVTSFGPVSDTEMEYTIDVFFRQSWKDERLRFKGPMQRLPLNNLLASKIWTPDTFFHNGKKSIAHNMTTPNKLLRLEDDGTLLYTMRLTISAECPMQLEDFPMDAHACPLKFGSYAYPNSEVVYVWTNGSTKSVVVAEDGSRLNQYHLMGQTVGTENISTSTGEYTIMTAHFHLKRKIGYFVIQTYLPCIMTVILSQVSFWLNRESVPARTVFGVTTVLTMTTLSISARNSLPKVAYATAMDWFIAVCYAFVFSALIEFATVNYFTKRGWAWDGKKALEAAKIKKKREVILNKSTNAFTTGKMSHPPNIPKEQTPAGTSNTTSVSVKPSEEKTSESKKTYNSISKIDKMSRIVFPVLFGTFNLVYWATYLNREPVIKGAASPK
T2 sequence (P47870 25-512 limits assumed): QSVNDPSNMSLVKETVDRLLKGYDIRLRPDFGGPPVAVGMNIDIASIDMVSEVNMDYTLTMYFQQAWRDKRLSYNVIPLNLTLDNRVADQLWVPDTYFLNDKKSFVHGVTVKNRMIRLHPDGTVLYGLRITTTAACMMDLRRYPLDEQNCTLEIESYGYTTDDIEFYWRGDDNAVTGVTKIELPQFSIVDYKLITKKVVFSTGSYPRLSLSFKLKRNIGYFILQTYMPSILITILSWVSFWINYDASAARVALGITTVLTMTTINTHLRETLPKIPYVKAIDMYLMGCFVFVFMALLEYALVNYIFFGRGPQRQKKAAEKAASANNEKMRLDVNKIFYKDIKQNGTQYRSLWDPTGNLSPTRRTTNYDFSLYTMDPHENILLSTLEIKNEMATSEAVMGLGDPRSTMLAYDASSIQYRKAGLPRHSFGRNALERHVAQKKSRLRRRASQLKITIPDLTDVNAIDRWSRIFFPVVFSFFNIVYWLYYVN
T2 sequence (P18507 40-475 partner): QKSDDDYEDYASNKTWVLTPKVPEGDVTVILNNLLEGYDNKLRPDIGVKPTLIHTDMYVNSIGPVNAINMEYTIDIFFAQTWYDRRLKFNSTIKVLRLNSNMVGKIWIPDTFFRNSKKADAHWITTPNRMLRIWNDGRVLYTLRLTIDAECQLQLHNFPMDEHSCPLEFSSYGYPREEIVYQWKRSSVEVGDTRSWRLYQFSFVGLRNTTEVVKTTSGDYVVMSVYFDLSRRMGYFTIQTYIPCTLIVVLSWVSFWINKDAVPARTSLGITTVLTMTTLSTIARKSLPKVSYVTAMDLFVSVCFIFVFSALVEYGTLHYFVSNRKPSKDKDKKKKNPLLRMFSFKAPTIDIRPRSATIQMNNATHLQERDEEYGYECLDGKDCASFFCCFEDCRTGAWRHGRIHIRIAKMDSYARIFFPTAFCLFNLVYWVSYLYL
Procedure: as §1, §2, §3, §4

T1 sequence (P14867 28-456): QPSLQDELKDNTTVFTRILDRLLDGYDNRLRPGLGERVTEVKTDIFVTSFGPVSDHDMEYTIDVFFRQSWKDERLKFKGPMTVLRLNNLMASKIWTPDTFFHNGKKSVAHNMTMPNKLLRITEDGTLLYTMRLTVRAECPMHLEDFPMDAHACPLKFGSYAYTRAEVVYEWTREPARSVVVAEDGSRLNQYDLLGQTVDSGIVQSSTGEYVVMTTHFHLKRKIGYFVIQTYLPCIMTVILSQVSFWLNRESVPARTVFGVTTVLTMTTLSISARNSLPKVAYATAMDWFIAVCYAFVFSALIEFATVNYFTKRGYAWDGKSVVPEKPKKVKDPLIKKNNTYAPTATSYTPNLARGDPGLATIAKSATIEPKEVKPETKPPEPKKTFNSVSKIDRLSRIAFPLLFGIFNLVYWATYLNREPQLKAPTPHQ
T1 sequence (P47870 25-512 limits assumed): as the sequence (P47870 25-512 limits assumed) above
T1 sequence (P18507 40-475 partner): as the sequence (P18507 40-475 partner) above

Row | IC50 [1] [nM] | IC50 [2] [nM] | Structure (SMILES) | GABA EC80 ([1]; α1β2γ2, calculated from GABA potencies) [µM] | GABA EC80 ([2]; α5β2γ2, calculated from GABA potencies) [µM]
1 | 790 | 51 | O=C(Nc1cccc(C(=O)N2CCC3(CCNCC3)CC2)c1)c1cccs1 [compound 018, N-(3-(3,9-diazaspiro[5.5]undecane-3-carbonyl)phenyl)thiophene-2-carboxamide] | – | –
2 | – | – | NCCCC(=O)O [GABA] | 8.0 | 3.0
3 | 4960 | 590 | CC(=O)Nc1cccc(C(=O)N2CCC3(CCNCC3)CC2)c1 [compound 2027, N-(3-(3,9-diazaspiro[5.5]undecane-3-carbonyl)phenyl)acetamide] | – | –
